Experimental data reported in patent US9468212B2, “Antifungal compositions” (DSM IP ASSETS B.V., priority 2013, dated 2016).
Where “and” joins values, the source holds several entries; their conditions need not be identical. Identical values can stand only once.

Assays:
Penicillium italicum = assay: Treatment of oranges: wounded, inoculated with Penicillium italicum, wound treated with antifungal composition (Examples 7-9); assay type: in vivo; settings: for Observed antifungal activity O (%) / Number of moulded oranges/total number of 8 oranges: oranges, 20° C.
Experimental: The expected antifungal activity (E in %) of the combined antifungal composition comprising both active ingredients was calculated according to the Colby equation (Colby, 1967): E=X+Y−[(X·Y)/100] wherein X and Y are the observed antifungal activities (in %) of the individual active ingredients X and Y, respectively.
Eight fresh, organic oranges were used per treatment. Each orange was soaked in a 180 ppm hypochlorite solution for 10 minutes, then rinsed thoroughly with fresh tap water and dried. The peel of each disinfected orange was wounded once using a cork borer according to the method described by de Lapeyre de Bellaire and Dubois (1987). Subsequently, each wound was inoculated with 10 μl of a Penicillium italicum suspension containing 5×10^5 of spores/ml. After incubation for 3 hours at 20° C., each wound and the orange peel area of 1 cm around the wound was treated with in total […] of a freshly prepared aqueous antifungal composition comprising either 500 ppm natamycin (DSM Food Specialties, Delft, The Netherlands), 300 ppm fludioxonil or both. Each antifungal composition also comprised 3.2% (w/w) beeswax, 0.8% (w/w) glycerol, 0.7% (w/w) polyoxyethylene sorbitan monostearate (Tween 60), 0.1% (w/w) polyoxyethylene sorbitan monooleate (Tween 80), 0.05% (w/w) methylhydroxyethyl-cellulose (MHEC), 0.03% (w/w) anti-foaming agent, 0.02% (w/w) xanthan gum, 0.02% (w/w) citric acid, 0.01% (w/w) lactic acid and 0.01% potassium sorbate. A composition without natamycin or fludioxonil was used as control.
The treated oranges were incubated in a closed box in the dark at 20° C. and assessed on mould growth during a 27-day incubation period.
The experiment was conducted as described in Example 7, except for the fact that each wounded and inoculated orange was treated with 150 μl of a freshly prepared aqueous antifungal composition comprising either 250 ppm natamycin (DSM Food Specialties, Delft, The Netherlands), 100 ppm fludioxonil or both. During incubation, the treated oranges were assessed on mould growth according to the two methods described in Example 5.
The experiment was conducted as described in Example 7, except for the fact that each wounded and inoculated orange was treated with 150 μl of a freshly prepared aqueous antifungal composition comprising either 500 ppm natamycin (DSM Food Specialties, Delft, The Netherlands), 400 ppm fenpiclonil or both. During a 23-day incubation period, the treated oranges were assessed on mould growth according to the two methods described in Example 5.

Botrytis cinerea = assay: Treatment of sweet peppers: wounded, inoculated with Botrytis cinerea, wound treated with antifungal composition (Example 10); assay type: in vivo; settings: 400 ppm natamycin, 600 ppm fenpiclonil or both, 20° C.
Experimental: Ten fresh, organic sweet peppers were used per treatment. The peel of each sweet pepper was wounded once using a cork borer according to the method described by de Lapeyre de Bellaire and Dubois (1987). Subsequently, each wound was inoculated with 10 μl of a Botrytis cinerea suspension containing 1×10^5 of spores/ml. After incubation for 3 hours at 20° C., each wound and the skin area of 0.5 cm around the wound was treated with in total 75 μl of a freshly prepared aqueous antifungal composition comprising either 400 ppm natamycin (DSM Food Specialties, Delft, The Netherlands), 600 ppm fenpiclonil or both. Each antifungal composition also comprised 3.2% (w/w) beeswax, 0.8% (w/w) glycerol, 0.7% (w/w) polyoxyethylene sorbitan monostearate (Tween 60), 0.2% (w/w) polyoxyethylene sorbitan monooleate (Tween 80), 0.05% (w/w) methylhydroxyethyl-cellulose (MHEC), 0.03% (w/w) anti-foaming agent, 0.02% (w/w) xanthan gum, 0.02% (w/w) citric acid, 0.01% (w/w) lactic acid and 0.01% potassium sorbate. A composition without natamycin or fenpiclonil was used as control.
The treated sweet peppers were incubated in a closed box in the dark at 20° C. and assessed on mould growth during incubation. The antifungal activity (in %) of the individual and combined active ingredients was determined by calculating the reduction in mould growth observed on the sweet peppers treated with the antifungal composition in comparison to the mould growth on the sweet peppers treated with the control composition according to the Colby method (Colby, 1967) as described in Example 5.

[1] = 250 ppm natamycin, 100 ppm fludioxonil or both, 26-27 days
[2] = 250 ppm natamycin, 100 ppm fludioxonil or both, 19 days
[3] = 250 ppm natamycin, 100 ppm fludioxonil or both, 20 days
[4] = 250 ppm natamycin, 100 ppm fludioxonil or both, 21 days
[5] = 250 ppm natamycin, 100 ppm fludioxonil or both, 22 days
[6] = 250 ppm natamycin, 100 ppm fludioxonil or both, 23 days
[7] = 250 ppm natamycin, 100 ppm fludioxonil or both, 25 days
[8] = 250 ppm natamycin, 100 ppm fludioxonil or both, Day 14-18
[9] = 250 ppm natamycin, 100 ppm fludioxonil or both, Day 19-22
[10] = 250 ppm natamycin, 100 ppm fludioxonil or both, Day 23-27
[11] = 500 ppm natamycin, 300 ppm fludioxonil or both, 22-27 days
[12] = 500 ppm natamycin, 300 ppm fludioxonil or both, 18 days
[13] = 500 ppm natamycin, 300 ppm fludioxonil or both, 19 days
[14] = 500 ppm natamycin, 300 ppm fludioxonil or both, 20 days
[15] = 500 ppm natamycin, 300 ppm fludioxonil or both, 21 days
[16] = 500 ppm natamycin, 300 ppm fludioxonil or both, Day 18-27

C[C@@H]1C/C=C/C=C/C=C/C=C/[C@H](O[C@@H]2O[C@H](C)[C@@H](O)[C@H](N)[C@@H]2O)C[C@@H]2O[C@](O)(C[C@@H](O)C[C@H]3O[C@@H]3/C=C/C(=O)O1)C[C@H](O)[C@H]2C(=O)O [Natamycin, natamycin]
Observed antifungal activity O (%) (Penicillium italicum; [1]): 17%
Observed antifungal activity O (%) (Penicillium italicum; [2]): 36%
Observed antifungal activity O (%) (Penicillium italicum; [3]): 34%
Observed antifungal activity O (%) (Penicillium italicum; [4]): 32%
Observed antifungal activity O (%) (Penicillium italicum; [5]): 29%
Observed antifungal activity O (%) (Penicillium italicum; [6]): 25%
Observed antifungal activity O (%) (Penicillium italicum; [7]): 19%
Number of moulded oranges/total number of 8 oranges (Penicillium italicum; [8]): 6/8
Number of moulded oranges/total number of 8 oranges (Penicillium italicum; [9]): 7/8
Number of moulded oranges/total number of 8 oranges (Penicillium italicum; [10]): 7/8
Observed antifungal activity O (%) (Penicillium italicum; [11]): 14%
Observed antifungal activity O (%) (Penicillium italicum; [12]): 32%
Observed antifungal activity O (%) (Penicillium italicum; [13]): 29%
Observed antifungal activity O (%) (Penicillium italicum; [14]): 20%
Observed antifungal activity O (%) (Penicillium italicum; [15]): 16%
Number of moulded oranges/total number of 8 oranges (Penicillium italicum; [16]): 6 and 6/8
Observed antifungal activity O (%) (Penicillium italicum; 500 ppm natamycin, 400 ppm fenpiclonil or both, 22-23 days): 14%
Observed antifungal activity O (%) (Penicillium italicum; 500 ppm natamycin, 400 ppm fenpiclonil or both, 12 days): 55%
Observed antifungal activity O (%) (Penicillium italicum; 500 ppm natamycin, 400 ppm fenpiclonil or both, 13 days): 52%
Observed antifungal activity O (%) (Penicillium italicum; 500 ppm natamycin, 400 ppm fenpiclonil or both, 14 days): 48%
Observed antifungal activity O (%) (Penicillium italicum; 500 ppm natamycin, 400 ppm fenpiclonil or both, 15 days): 45%
Observed antifungal activity O (%) (Penicillium italicum; 500 ppm natamycin, 400 ppm fenpiclonil or both, 16 days): 43%
Observed antifungal activity O (%) (Penicillium italicum; 500 ppm natamycin, 400 ppm fenpiclonil or both, 18 days): 32%
Observed antifungal activity O (%) (Penicillium italicum; 500 ppm natamycin, 400 ppm fenpiclonil or both, 19 days): 29%
Observed antifungal activity O (%) (Penicillium italicum; 500 ppm natamycin, 400 ppm fenpiclonil or both, 20 days): 20%
Observed antifungal activity O (%) (Penicillium italicum; 500 ppm natamycin, 400 ppm fenpiclonil or both, 21 days): 16%
Number of moulded oranges/total number of 8 oranges (Penicillium italicum; 500 ppm natamycin, 400 ppm fenpiclonil or both, Day 14-15): 5 and 5/8
Number of moulded oranges/total number of 8 oranges (Penicillium italicum; 500 ppm natamycin, 400 ppm fenpiclonil or both, Day 16): 5/8
Number of moulded oranges/total number of 8 oranges (Penicillium italicum; 500 ppm natamycin, 400 ppm fenpiclonil or both, Day 18): 6/8
Number of moulded oranges/total number of 8 oranges (Penicillium italicum; 500 ppm natamycin, 400 ppm fenpiclonil or both, Day 19-23): 6/8
Observed antifungal activity O (%) (Botrytis cinerea; 47 days): 15%
Observed antifungal activity O (%) (Botrytis cinerea; 48 days): 6%
Observed antifungal activity O (%) (Botrytis cinerea; 49 days): 4%
Observed antifungal activity O (%) (Botrytis cinerea; 50 days): 3%

N#Cc1c[nH]cc1-c1cccc2c1OC(F)(F)O2 [Fludioxonil, fludioxonil]
moulded oranges of the 8 oranges (Penicillium italicum; 250 ppm natamycin, 100 ppm fludioxonil or both, after 14 through 27 days of incubation): 8
Observed antifungal activity O (%) (Penicillium italicum; [1]): 0%
Observed antifungal activity O (%) (Penicillium italicum; [2]): 9%
Observed antifungal activity O (%) (Penicillium italicum; [3]): 2%
Observed antifungal activity O (%) (Penicillium italicum; [4]): 0%
Observed antifungal activity O (%) (Penicillium italicum; [5]): 0%
Observed antifungal activity O (%) (Penicillium italicum; [6]): 0%
Observed antifungal activity O (%) (Penicillium italicum; [7]): 0%
Number of moulded oranges/total number of 8 oranges (Penicillium italicum; [8]): 8/8
Number of moulded oranges/total number of 8 oranges (Penicillium italicum; [9]): 8/8
Number of moulded oranges/total number of 8 oranges (Penicillium italicum; [10]): 8/8
Observed antifungal activity O (%) (Penicillium italicum; [11]): 17%
Observed antifungal activity O (%) (Penicillium italicum; [12]): 17%
Observed antifungal activity O (%) (Penicillium italicum; [13]): 17%
Observed antifungal activity O (%) (Penicillium italicum; [14]): 17%
Observed antifungal activity O (%) (Penicillium italicum; [15]): 17%
Number of moulded oranges/total number of 8 oranges (Penicillium italicum; [16]): 7 and 7/8
